In ChEMBL document CHEMBL1126278, “New neplanocin analogues. 1. Synthesis of 6'-modified neplanocin A derivatives as broad-spectrum antiviral agents” (J Med Chem, 1992):
Converted amounts (≈) assume the structure as drawn.

What was measured:
HEL [1] = assay: Inhibitory effect on replication of DNA virus CMV (AD-169) on HEL cell line.; assay type: functional, cell-based; conditions: Homo sapiens
HEL [2] = assay: Inhibitory effect on replication of DNA virus CMV (Davis) on HEL cell line.; assay type: functional, cell-based; conditions: Homo sapiens
HEL [3] = assay: Inhibitory effect on replication of DNA virus Cell growth on HEL cell line.; assay type: functional, cell-based; conditions: Homo sapiens
HEL [4] = assay: Inhibitory effect on replication of DNA virus TK-VZV (07-1) on HEL cell line.; assay type: functional, cell-based; conditions: Homo sapiens
HEL [5] = assay: Inhibitory effect on replication of DNA virus TK-VZV (YSR) on HEL cell line.; assay type: functional, cell-based; conditions: Homo sapiens
HEL [6] = assay: Inhibitory effect on replication of DNA virus VZV (Oka) on HEL cell line.; assay type: functional, cell-based; conditions: Homo sapiens
HEL [7] = assay: Inhibitory effect on replication of DNA virus VZV (YS) on HEL cell line.; assay type: functional, cell-based; conditions: Homo sapiens
HeLa [8] = assay: Inhibitory effect on replication of RNA virus coxsB-4 in HeLa cell line.; assay type: functional, cell-based; conditions: Homo sapiens
HeLa [9] = assay: Inhibitory effect on replication of RNA virus RSV in HeLa cell line; assay type: functional, cell-based; conditions: Homo sapiens
MDCK [10] = assay: Inhibitory effect on replication of RNA virus cell morphology in MDCK cell line.; assay type: functional, cell-based; conditions: Canis lupus familiaris
MT4 [11] = assay: Inhibitory effect on replication of RNA virus HIV-1 in MT-4 cell line.; assay type: functional, cell-based; conditions: Homo sapiens
MT4 [12] = assay: Inhibitory effect on replication of RNA virus cell growth in MT-4 cell line.; assay type: functional, cell-based; conditions: Homo sapiens
PRK [13] = assay: Inhibitory effect on replication of DNA virus Cell morphology on PRK cell line; assay type: functional, cell-based; conditions: Oryctolagus cuniculus
[14] = Inhibitory effect on replication of DNA virus HSV-1 (KOS) in PRK cell line.; assay type: functional, cell-based; conditions: Oryctolagus cuniculus
[15] = Inhibitory effect on replication of DNA virus HSV-2 (G) in PRK cell line.; assay type: functional, cell-based; conditions: Oryctolagus cuniculus
PRK [16] = assay: Inhibitory effect on replication of RNA virus VSV in PRK cell line.; assay type: functional, cell-based; conditions: Oryctolagus cuniculus
PRK [17] = assay: Inhibitory effect on replication of RNA virus cell morphology in PRK cell line.; assay type: functional, cell-based; conditions: Oryctolagus cuniculus
Vero [18] = assay: Inhibitory effect on replication of RNA virus coxsB-4 in Vero cell line; assay type: functional, cell-based; conditions: Chlorocebus sabaeus
Vero [19] = assay: Inhibitory effect on replication of RNA virus measles on Vero cell line.; assay type: functional, cell-based; conditions: Chlorocebus sabaeus
Vero [20] = assay: Inhibitory effect on replication of RNA virus reo-1 in Vero cell line.; assay type: functional, cell-based; conditions: Chlorocebus sabaeus
Vero [21] = assay: Inhibitory effect on replication of RNA virus JV in Vero cell line.; assay type: functional, cell-based; conditions: Chlorocebus sabaeus
Vero [22] = assay: Inhibitory effect on replication of RNA virus SFV in Vero cell line; assay type: functional, cell-based; conditions: Chlorocebus sabaeus
Vero [23] = assay: Inhibitory effect on replication of RNA virus SV in Vero cell line.; assay type: functional, cell-based; conditions: Chlorocebus sabaeus
Vero [24] = assay: Inhibitory effect on replication of RNA virus TV in Vero cell line.; assay type: functional, cell-based; conditions: Chlorocebus sabaeus
Vero [25] = assay: Inhibitory effect on replication of RNA virus cell morphology in Vero cell line.; assay type: functional, cell-based; conditions: Chlorocebus sabaeus
Vero [26] = assay: Inhibitory effect on replication of RNA virus protein synthesis in Vero cell line.; assay type: functional, cell-based; conditions: Chlorocebus sabaeus
Vero [27] = assay: Inhibitory effect on replication of RNA virus PV-3 in Vero cell line.; assay type: functional, cell-based; conditions: Chlorocebus sabaeus
Vero [28] = assay: Inhibitory effect on replication of virus protein synthesis in Vero cell line.; assay type: functional, cell-based; conditions: Chlorocebus sabaeus
HeLa [29] = assay: cells; conditions: Homo sapiens
MDCK [30] = assay: cells; conditions: Canis lupus familiaris
MDCK [31] = assay: cells; conditions: Canis lupus familiaris; remark: listed apart in the source
ESM [32] = assay: Inhibitory effect on replication of DNA virus Cell morphology on ESM cell line; assay type: functional, cell-based
ESM [33] = assay: Inhibitory effect on replication of DNA virus HSV-1 (KOS) in ESM cell line; assay type: functional, cell-based
ESM [34] = assay: Inhibitory effect on replication of DNA virus HSV-2 (G) in ESM cell line; assay type: functional, cell-based
ESM [35] = assay: Inhibitory effect on replication of DNA virus TK-HSV-1 (B2006) on ESM cell line.; assay type: functional, cell-based
ESM [36] = assay: Inhibitory effect on replication of DNA virus TK-HSV-1 (VMW 1837) on ESM cell line.; assay type: functional, cell-based
ESM [37] = assay: Inhibitory effect on replication of DNA virus VV on ESM cell line.; assay type: functional, cell-based
ESM [38] = assay: Inhibitory effect on replication of RNA virus VSV in ESM cell line.; assay type: functional, cell-based
ESM [39] = assay: Inhibitory effect on replication of RNA virus cell morphology in ESM cell line.; assay type: functional, cell-based
HeLa [40] = assay: Inhibitory effect on replication of DNA virus RNA virus cell morphology in HeLa cell line.; assay type: functional, cell-based; conditions: Homo sapiens
HeLa [41] = assay: Inhibitory effect on replication of RNA virus VSV in HeLa cell line.; assay type: functional, cell-based; conditions: Homo sapiens
PRK [42] = assay: Inhibitory effect on replication of DNA virus VV on PRK cell line.; assay type: functional, cell-based; conditions: Oryctolagus cuniculus
Vero [43] = assay: Inhibitory effect on replication of RNA virus RNA synthesis in Vero cell line.; assay type: functional, cell-based; conditions: Chlorocebus sabaeus

For Nc1ncnc2c1ncn2[C@@H]1C=C(CCl)[C@@H](O)[C@H]1O, the IC50 (HEL [1]) was 2 µg/mL (≈ 7.1 µM), the IC50 (HEL [2]) was 0.7 µg/mL (≈ 2.48 µM) and the IC50 (HEL [3]) was 9 µg/mL (≈ 31.9 µM). The IC50 (HEL [4]) was 1 µg/mL (≈ 3.55 µM), the IC50 (HEL [5]) was 2 µg/mL (≈ 7.1 µM) and the IC50 (HEL [6]) was 2.5 µg/mL (≈ 8.87 µM). For the same compound, the IC50 (HEL [7]) was 2 µg/mL (≈ 7.1 µM), the IC50 (HeLa [8]) was greater than 40 µg/mL and the IC50 (HeLa [9]) was 0.8 µg/mL (≈ 2.84 µM). The IC50 (MDCK [10]) was 10 µg/mL (≈ 35.5 µM), the IC50 (MT4 [11]) was greater than 0.06 µg/mL and the IC50 (MT4 [12]) was 0.2 µg/mL (≈ 0.71 µM). For the same compound, the IC50 (PRK [13]) was 40 µg/mL (≈ 142 µM), the IC50 [14] was greater than 20 µg/mL and the IC50 [15] was greater than 20 µg/mL. The IC50 (PRK [16]) was 0.7 µg/mL (≈ 2.48 µM), the IC50 (PRK [17]) was 40 µg/mL (≈ 142 µM) and the IC50 (Vero [18]) was greater than 40 µg/mL. For the same compound, the IC50 (Vero [19]) was 0.8 µg/mL (≈ 2.84 µM), the IC50 (Vero [20]) was 0.7 µg/mL (≈ 2.48 µM) and the IC50 (Vero [21]) was 2 µg/mL (≈ 7.1 µM). The IC50 (Vero [22]) was greater than 40 µg/mL, the IC50 (Vero [23]) was greater than 40 µg/mL and the IC50 (Vero [24]) was 2 µg/mL (≈ 7.1 µM). It also gave an IC50 (Vero [25]) of 40 µg/mL (≈ 142 µM), an IC50 (Vero [26]) of 0.8 µg/mL (≈ 2.84 µM) and an IC50 (Vero [27]) of 7 µg/mL (≈ 24.8 µM). For the same compound, the IC50 (Vero [28]) was 5 µg/mL (≈ 17.7 µM), the IC50 (HeLa [29]) was greater than 40 µg/mL and the IC50 (MDCK [30]) was greater than 10 µg/mL. The IC50 (MDCK [31]) was greater than 10 µg/mL.
With Nc1ncnc2c1ncn2[C@@H]1C=C(CO)[C@@H](O)[C@H]1O [NEOPLANOCIN A] the IC50 (ESM [32]) was 40 µg/mL (≈ 152 µM), the IC50 (ESM [33]) was 20 µg/mL (≈ 76 µM) and the IC50 (ESM [34]) was 10 µg/mL (≈ 38 µM). For the same compound, the IC50 (ESM [35]) was 4 µg/mL (≈ 15.2 µM), the IC50 (ESM [36]) was 7 µg/mL (≈ 26.6 µM) and the IC50 (ESM [37]) was 0.2 µg/mL (≈ 0.76 µM). The IC50 (ESM [38]) was 0.2 µg/mL (≈ 0.76 µM), the IC50 (ESM [39]) was 40 µg/mL (≈ 152 µM) and the IC50 (HEL [1]) was 0.3 µg/mL (≈ 1.14 µM). It also gave an IC50 (HEL [2]) of 0.2 µg/mL (≈ 0.76 µM), an IC50 (HEL [3]) of 16 µg/mL (≈ 60.8 µM) and an IC50 (HEL [4]) of 5 µg/mL (≈ 19 µM). The IC50 (HEL [5]) was 2 µg/mL (≈ 7.6 µM), the IC50 (HEL [6]) was 8 µg/mL (≈ 30.4 µM) and the IC50 (HEL [7]) was 5 µg/mL (≈ 19 µM). For the same compound, the IC50 (HeLa [8]) was greater than 40 µg/mL, the IC50 (HeLa [40]) was 20 µg/mL (≈ 76 µM) and the IC50 (HeLa [9]) was 0.2 µg/mL (≈ 0.76 µM). For the same compound, the IC50 (HeLa [41]) was 0.2 µg/mL (≈ 0.76 µM), the IC50 (MDCK [10]) was 20 µg/mL (≈ 76 µM) and the IC50 (MT4 [11]) was greater than 0.006 µg/mL. For the same compound, the IC50 (MT4 [12]) was 0.02 µg/mL (≈ 0.076 µM), the IC50 (PRK [13]) was 40 µg/mL (≈ 152 µM) and the IC50 (PRK [42]) was 0.2 µg/mL (≈ 0.76 µM). The IC50 [14] was greater than 40 µg/mL, the IC50 [15] was greater than 40 µg/mL and the IC50 (PRK [16]) was 0.2 µg/mL (≈ 0.76 µM). It also gave an IC50 (PRK [17]) of 40 µg/mL (≈ 152 µM), an IC50 (Vero [18]) greater than 40 µg/mL and an IC50 (Vero [19]) of 0.2 µg/mL (≈ 0.76 µM). For the same compound, the IC50 (Vero [20]) was 0.4 µg/mL (≈ 1.52 µM), the IC50 (Vero [21]) was 0.4 µg/mL (≈ 1.52 µM) and the IC50 (Vero [22]) was greater than 40 µg/mL. It also gave an IC50 (Vero [23]) greater than 40 µg/mL, an IC50 (Vero [24]) of 0.4 µg/mL (≈ 1.52 µM) and an IC50 (Vero [43]) of 0.21 µg/mL (≈ 0.798 µM). It also gave an IC50 (Vero [25]) of 10 µg/mL (≈ 38 µM), an IC50 (Vero [26]) of 4.3 µg/mL (≈ 16.3 µM) and an IC50 (Vero [27]) of 0.4 µg/mL (≈ 1.52 µM). For the same compound, the IC50 (HeLa [29]) was greater than 40 µg/mL, the IC50 (MDCK [30]) was greater than 20 µg/mL and the IC50 (MDCK [31]) was greater than 20 µg/mL.
